Test results: patent US20230085307A1, “PYRIDAZINONE COMPOUND AND HERBICIDE” (NISSAN CHEMICAL CORPORATION, priority 2019, published 2023)

Tests used:
[1] = test system: southern crabgrass; assay: Test Example 5: herbicidal effect by foliage application, plastic box (Table 20, symbol F); format: in vivo, southern crabgrass (Digitaria ciliaris); conditions: foliage application, 320 g/ha, three weeks after application
Outline: (§1)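 Plants were sown into sterilized diluvial soil under about 1.5 cm cover and kept in a greenhouse at 25° C. to 30° C. Fourteen days on, foliage received an even spray of the diluted emulsion. Herbicidal or crop effect was judged three weeks afterwards.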

[2] = test system: persian speedwell; assay: Test Example 4: herbicidal effect by soil treatment (Table 19, symbol R); format: in vivo, Persian speedwell (Veronica persica); conditions: amount of applied herbicide 320 g/ha
Outline: (§2)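 In this soil treatment, the formulated compound reached the seeds only through the soil: seeds were buried about 1.5 cm deep in sterilized diluvial soil, then the diluted emulsion was sprayed over the surface. After three weeks at 25° C. to 30° C. in a greenhouse, effects were graded on criteria from an earlier test.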

[3] = test system: barnyard grass; assay: Test Example 4: herbicidal effect by soil treatment (Table 19, symbol H); format: in vivo, barnyard grass (Echinochloa crus-galli); conditions: amount of applied herbicide 320 g/ha
Outline: as §2

[4] = test system: blackgrass; assay: Test Example 4: herbicidal effect by soil treatment (Table 19, symbol J); format: in vivo, blackgrass (Alopecurus myosuroides); conditions: amount of applied herbicide 320 g/ha
Outline: as §2

[5] = test system: redroot pigweed; assay: Test Example 5: herbicidal effect by foliage application, plastic box (Table 20, symbol N); format: in vivo, redroot pigweed (Amaranthus retroflexus); conditions: foliage application, 320 g/ha, three weeks after application
Outline: as §1

[6] = test system: Italian ryegrass; assay: Test Example 4: herbicidal effect by soil treatment (Table 19, symbol K); format: in vivo, Italian ryegrass (Lolium multiflorum); conditions: amount of applied herbicide 320 g/ha
Outline: as §2

[7] = test system: green foxtail; assay: Test Example 4: herbicidal effect by soil treatment (Table 19, symbol G); format: in vivo, green foxtail (Setaria viridis); conditions: amount of applied herbicide 320 g/ha
Outline: as §2

[8] = test system: barnyard grass; assay: Test Example 5: herbicidal effect by foliage application, plastic box (Table 20, symbol H); format: in vivo, barnyard grass (Echinochloa crus-galli); conditions: foliage application, 320 g/ha, three weeks after application
Outline: as §1

[9] = test system: chickweed; assay: Test Example 5: herbicidal effect by foliage application, plastic box (Table 20, symbol P); format: in vivo, common chickweed (Stellaria media); conditions: foliage application, 320 g/ha, three weeks after application
Outline: as §1

[10] = test system: lambsquarters; assay: Test Example 4: herbicidal effect by soil treatment (Table 19, symbol O); format: in vivo, lambsquarters (Chenopodium album); conditions: amount of applied herbicide 320 g/ha
Outline: as §2

[11] = test system: green foxtail; assay: Test Example 5: herbicidal effect by foliage application, plastic box (Table 20, symbol G); format: in vivo, green foxtail (Setaria viridis); conditions: foliage application, 320 g/ha, three weeks after application
Outline: as §1

[12] = test system: barnyard grass; assay: Test Example 3: herbicidal effect by foliage application, Wagner pot (Table 18, symbol H); format: in vivo, barnyard grass (Echinochloa crus-galli); conditions: 320 g/ha
Outline: (§3)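 Plants were sown in alluvial soil held under 0.1–0.5 cm standing water and grown 14 days in a greenhouse at 25–30 °C. An emulsifiable formulation, water-diluted to the set dose, was then sprayed onto the foliage, and effects were scored three weeks later using previously defined criteria.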

[13] = test system: blackgrass; assay: Test Example 5: herbicidal effect by foliage application, plastic box (Table 20, symbol J); format: in vivo, blackgrass (Alopecurus myosuroides); conditions: foliage application, 320 g/ha, three weeks after application
Outline: as §1

[14] = test system: Italian ryegrass; assay: Test Example 5: herbicidal effect by foliage application, plastic box (Table 20, symbol K); format: in vivo, Italian ryegrass (Lolium multiflorum); conditions: foliage application, 320 g/ha, three weeks after application
Outline: as §1

[15] = test system: lambsquarters; assay: Test Example 5: herbicidal effect by foliage application, plastic box (Table 20, symbol O); format: in vivo, lambsquarters (Chenopodium album); conditions: foliage application, 320 g/ha, three weeks after application
Outline: as §1

[16] = test system: wild oat; assay: Test Example 5: herbicidal effect by foliage application, plastic box (Table 20, symbol I); format: in vivo, wild oat (Avena fatua); conditions: foliage application, 320 g/ha, three weeks after application
Outline: as §1

[17] = test system: windgrass; assay: Test Example 4: herbicidal effect by soil treatment (Table 19, symbol L); format: in vivo, windgrass (Apera spica-venti); conditions: amount of applied herbicide 320 g/ha
Outline: as §2

[18] = test system: redroot pigweed; assay: Test Example 4: herbicidal effect by soil treatment (Table 19, symbol N); format: in vivo, redroot pigweed (Amaranthus retroflexus); conditions: amount of applied herbicide 320 g/ha
Outline: as §2

[19] = test system: southern crabgrass; assay: Test Example 4: herbicidal effect by soil treatment (Table 19, symbol F); format: in vivo, southern crabgrass (Digitaria ciliaris); conditions: amount of applied herbicide 320 g/ha
Outline: as §2

[20] = test system: chickweed; assay: Test Example 4: herbicidal effect by soil treatment (Table 19, symbol P); format: in vivo, common chickweed (Stellaria media); conditions: amount of applied herbicide 320 g/ha
Outline: as §2

[21] = test system: wild oat; assay: Test Example 4: herbicidal effect by soil treatment (Table 19, symbol I); format: in vivo, wild oat (Avena fatua); conditions: amount of applied herbicide 320 g/ha
Outline: as §2

[22] = test system: rice flat sedge; assay: Test Example 3: herbicidal effect by foliage application, Wagner pot (Table 18, symbol E); format: in vivo, rice flat sedge (Cyperus iria); conditions: 320 g/ha
Outline: as §3

[23] = test system: velvetleaf; assay: Test Example 5: herbicidal effect by foliage application, plastic box (Table 20, symbol M); format: in vivo, velvetleaf (Abutilon theophrasti); conditions: foliage application, 320 g/ha, three weeks after application
Outline: as §1

[24] = test system: Chinese sprangletop; assay: Test Example 3: herbicidal effect by foliage application, Wagner pot (Table 18, symbol D); format: in vivo, chinese sprangletop (Leptochloa chinensis); conditions: 320 g/ha
Outline: as §3

[25] = test system: persian speedwell; assay: Test Example 5: herbicidal effect by foliage application, plastic box (Table 20, symbol R); format: in vivo, Persian speedwell (Veronica persica); conditions: foliage application, 320 g/ha, three weeks after application
Outline: as §1

[26] = test system: velvetleaf; assay: Test Example 4: herbicidal effect by soil treatment (Table 19, symbol M); format: in vivo, velvetleaf (Abutilon theophrasti); conditions: amount of applied herbicide 320 g/ha
Outline: as §2

[27] = test system: windgrass; assay: Test Example 5: herbicidal effect by foliage application, plastic box (Table 20, symbol L); format: in vivo, windgrass (Apera spica-venti); conditions: foliage application, 320 g/ha, three weeks after application
Outline: as §1

| Structure (SMILES) | F: southern crabgrass, herbicidal effect grade [1] | N: redroot pigweed, herbicidal effect grade [5] | H: barnyard grass, herbicidal effect grade [8] | P: chickweed, herbicidal effect grade [9] | G: green foxtail, herbicidal effect grade [11] | herbicidal effect on barnyard grass (H) [12] | J: blackgrass, herbicidal effect grade [13] | K: Italian ryegrass, herbicidal effect grade [14] | O: lambsquarters, herbicidal effect grade [15] | I: wild oat, herbicidal effect grade [16] | herbicidal effect on rice flat sedge (E) [22] | M: velvetleaf, herbicidal effect grade [23] | herbicidal effect on Chinese sprangletop (D) [24] | R: persian speedwell, herbicidal effect grade [25] | L: windgrass, herbicidal effect grade [27] | also measured |
| --- | --- | --- | --- | --- | --- | --- | --- | --- | --- | --- | --- | --- | --- | --- | --- | --- |
| COc1ccc(-c2sc3cc(Cl)ccc3c2-c2c(O)c(C)nn(C)c2=O)cc1 [3-037] | 0 (Herbicidal rate of 5% or less (almost no effect)) | 5 (Herbicidal rate of 90% or more (almost completely withered)) | 0 (Herbicidal rate of 5% or less (almost no effect)) | 5 (Herbicidal rate of 90% or more (almost completely withered)) | 0 (Herbicidal rate of 5% or less (almost no effect)) | 4 (Herbicidal rate of 70% or more and less than 90%) | 0 (Herbicidal rate of 5% or less (almost no effect)) | 0 (Herbicidal rate of 5% or less (almost no effect)) | 4 (Herbicidal rate of 70% or more and less than 90%) | 0 (Herbicidal rate of 5% or less (almost no effect)) | 4 (Herbicidal rate of 70% or more and less than 90%) | 5 (Herbicidal rate of 90% or more (almost completely withered)) | 3 (Herbicidal rate of 40% or more and less than 70%) | 5 (Herbicidal rate of 90% or more (almost completely withered)) | 0 (Herbicidal rate of 5% or less (almost no effect)) | R: persian speedwell, herbicidal effect grade [2]: 3 (Herbicidal rate of 40% or more and less than 70%); H: barnyard grass, herbicidal effect grade [3]: 0 (Herbicidal rate of 5% or less (almost no effect)); J: blackgrass, herbicidal effect grade [4]: 0 (Herbicidal rate of 5% or less (almost no effect)); K: Italian ryegrass, herbicidal effect grade [6]: 0 (Herbicidal rate of 5% or less (almost no effect)); G: green foxtail, herbicidal effect grade [7]: 0 (Herbicidal rate of 5% or less (almost no effect)); O: lambsquarters, herbicidal effect grade [10]: 3 (Herbicidal rate of 40% or more and less than 70%); L: windgrass, herbicidal effect grade [17]: 0 (Herbicidal rate of 5% or less (almost no effect)); N: redroot pigweed, herbicidal effect grade [18]: 0 (Herbicidal rate of 5% or less (almost no effect)); F: southern crabgrass, herbicidal effect grade [19]: 0 (Herbicidal rate of 5% or less (almost no effect)); P: chickweed, herbicidal effect grade [20]: 3 (Herbicidal rate of 40% or more and less than 70%); I: wild oat, herbicidal effect grade [21]: 0 (Herbicidal rate of 5% or less (almost no effect)); M: velvetleaf, herbicidal effect grade [26]: 0 (Herbicidal rate of 5% or less (almost no effect)) |
| Cc1nn(C)c(=O)c(-c2c(-c3ccc(C(F)(F)F)cc3)sc3cc(F)ccc23)c1O [3-139] | 2 (Herbicidal rate of 20% or more and less than 40%) | 3 (Herbicidal rate of 40% or more and less than 70%) | 5 (Herbicidal rate of 90% or more (almost completely withered)) | 5 (Herbicidal rate of 90% or more (almost completely withered)) | 4 (Herbicidal rate of 70% or more and less than 90%) | 4 (Herbicidal rate of 70% or more and less than 90%) | 0 (Herbicidal rate of 5% or less (almost no effect)) | 5 (Herbicidal rate of 90% or more (almost completely withered)) | 5 (Herbicidal rate of 90% or more (almost completely withered)) | 3 (Herbicidal rate of 40% or more and less than 70%) | 4 (Herbicidal rate of 70% or more and less than 90%) | 5 (Herbicidal rate of 90% or more (almost completely withered)) | 4 (Herbicidal rate of 70% or more and less than 90%) | 5 (Herbicidal rate of 90% or more (almost completely withered)) | 5 (Herbicidal rate of 90% or more (almost completely withered)) | Herbicidal effect by soil treatment, R: persian speedwell [2]: 1 (Herbicidal rate of 5% or more and less than 20%); Herbicidal effect by soil treatment, H: barnyard grass [3]: 0 (Herbicidal rate of 5% or less (almost no effect)); Herbicidal effect by soil treatment, J: blackgrass [4]: 0 (Herbicidal rate of 5% or less (almost no effect)); Herbicidal effect by soil treatment, K: Italian ryegrass [6]: 0 (Herbicidal rate of 5% or less (almost no effect)); Herbicidal effect by soil treatment, G: green foxtail [7]: 0 (Herbicidal rate of 5% or less (almost no effect)); Herbicidal effect by soil treatment, O: lambsquarters [10]: 3 (Herbicidal rate of 40% or more and less than 70%); Herbicidal effect by soil treatment, L: windgrass [17]: 0 (Herbicidal rate of 5% or less (almost no effect)); Herbicidal effect by soil treatment, N: redroot pigweed [18]: 4 (Herbicidal rate of 70% or more and less than 90%); Herbicidal effect by soil treatment, F: southern crabgrass [19]: 0 (Herbicidal rate of 5% or less (almost no effect)); Herbicidal effect by soil treatment, P: chickweed [20]: 0 (Herbicidal rate of 5% or less (almost no effect)); Herbicidal effect by soil treatment, I: wild oat [21]: 0 (Herbicidal rate of 5% or less (almost no effect)); Herbicidal effect by soil treatment, M: velvetleaf [26]: 2 (Herbicidal rate of 20% or more and less than 40%) |
